Assay [1] concerns PGE2 release from RAW264.7 cells. Kind of assay: LPS-stimulated PGE2 release from RAW264.7 cells (immunoassay). Type of assay: cell-based. Particulars: Mus musculus, 2 h pretreatment, 1 μg/mL LPS 20-24 h, read-out: RAW 264.7 PGE2 release EC50. The procedure: RAW 264.7 cells were seeded at 4×10^4 cells per well n complete growth medium in 96 well white TC plates with clear bottoms one day prior to the assay. The next day the cells were washed once and 100 μL fresh growth media was added. Cells were pretreated with 0.5 μL from a 6 point 200× dilution series of the test compounds in DMSO for 2 hours. Following pretreatment with the drugs, the inflammatory response was induced by adding 5 μL of a 20 μg/mL solution of LPS (Sigma). The cells were incubated in the presence of the drugs and 1 μg/mL LPS for another 20-24 hours. Typically after treatment the total DMSO was […] of the culture volume and the final concentrations of the compounds were approximately: 40, 20, 10, 1, 0.2 and 0 μM depending on the MW of each compound. Modified dilution series were prepared as needed to get adequate dose response curves without changing the % DMSO. Samples were run in duplicate or triplicate and included DMSO treated control wells with and without LPS stimulation. Drugs with a known activity such as Parthenolide or DHMEQ were run as experimental controls. After 20-24 hours LPS activation, the media supernatant was collected from the cells and replaced with fresh media. The supernatant samples were cleared by centrifugation at 1,000×g for 5 minutes, transferred to fresh storage plates, and stored frozen at −30° C.
After determining the appropriate supernatant dilutions experimentally, PGE2 levels in the supernatants were quantified using Parameter™ PGE2 Immunoassay (R&D Systems) according to the manufacturer's protocol. 100 µL of the supernatants diluted in Calibrator Diluent and 50 μL of a primary monoclonal anti-PGE2 antibody were added to the microplate wells pre-coated with a goat anti-mouse Ig capture antibody. Then 50 μL of an HRP conjugated PGE2 competitor was added. Controls included non-specific binding (NSB) wells containing Calibrator Diluent but no primary antibody and a recombinant PGE2 standard dilution series (40-5000 pg/mL). The plates were incubated at room temperature for 2 hours with shaking and then washed 5 times with 400 μL 1× Wash Buffer. Equal volumes of Color Reagents A and B were mixed and 200 μL of this HRP Substrate Solution was added to each well on the plate. The blue color was allowed to develop for 30 minutes and then the reaction was stopped using 50 μL of Stop Solution yielding a yellow color. Absorbance at 450 nm with a reference at 595 nm was recorded using a […] DTX 880 Multimode Detector.
The concentration of PGE2 in the unknown samples was determined from a curve-fit of the PGE2 standard absorbance data and multiplying by the dilution factor. The maximum activity achieved in the absence of the inhibitor (DMSO+LPS treated wells) was arbitrarily given a value of 100%; likewise the minimum activity in the absence of the stimulant (no LPS treated wells) was assigned a value of 0%. Inhibition of the amount of PGE2 released in the drug treated wells was calculated relative to the maximum activation in the DMSO+LPS treated control wells (i.e., % inhibition=100−(drug+LPS treated)/(DMSO+LPS treated)). Dose response curves were used to determine the effective concentration to inhibit 50% of the PGE2 released (IC50) by means of a SigmaPlot macro which fits a sigmoidal dose-response curve to the (log 10) μM concentration versus inhibition. […] This technique yields an objective value for the IC50 provided that 50% inhibition was approached at the concentrations tested.

In a further assay the target is T1, RelB (Homo sapiens, UniProt Q01201).
T1 sequence (Q01201 1-579): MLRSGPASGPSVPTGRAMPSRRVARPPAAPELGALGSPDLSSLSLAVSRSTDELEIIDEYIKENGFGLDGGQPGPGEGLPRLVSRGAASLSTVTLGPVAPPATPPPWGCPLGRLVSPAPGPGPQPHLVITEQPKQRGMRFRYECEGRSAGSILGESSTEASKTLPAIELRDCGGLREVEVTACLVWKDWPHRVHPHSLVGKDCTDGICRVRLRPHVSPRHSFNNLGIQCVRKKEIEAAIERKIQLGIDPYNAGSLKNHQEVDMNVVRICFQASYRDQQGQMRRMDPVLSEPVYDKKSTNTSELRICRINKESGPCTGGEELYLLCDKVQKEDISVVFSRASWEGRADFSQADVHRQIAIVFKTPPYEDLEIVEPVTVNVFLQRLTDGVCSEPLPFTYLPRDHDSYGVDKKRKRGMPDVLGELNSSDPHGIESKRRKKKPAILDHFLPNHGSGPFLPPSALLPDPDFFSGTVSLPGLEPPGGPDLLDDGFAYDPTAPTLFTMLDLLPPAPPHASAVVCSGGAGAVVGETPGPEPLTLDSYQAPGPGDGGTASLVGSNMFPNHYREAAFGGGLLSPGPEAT
Description: TransAM NF-κB family DNA binding ELISA, RelB. In kind it is biochemical. Particulars: for IC50: binding to NF-κB consensus oligonucleotide, cells without % sign. Here is the method:
The binding activity of NF-κB heterodimer or homodimer subunits from activated nuclear extracts or purified recombinant NF-κB proteins exposed to the drug compounds was evaluated using the TransAM NF-κB Family binding ELISA (Active Motif). 3-5 μg of nuclear extracts from TNFα activated Hela or Raji cells (Active Motif) or 20 ng of purified recombinant proteins (p65 and p50 from Active Motif, p52 from Santa Cruz) were incubated for 1 hour at room temperature with 20 μL drug compounds diluted in Complete Lysis buffer without DTT. Treated samples were then transferred to 30 μL Complete Binding Buffer (with DTT) in microplate wells pre-coated with the NF-κB consensus oligonucleotide. […] The plate was incubated for 1 hour at room temperature with gentle shaking and then washed 3 times with 200 μL 1× Wash Buffer. NF-κB p65, p50, p52, RelB, or c-Rel subunits bound to the plate were detected with 100 μL of the primary antibody (diluted 1:1000 in 1× Antibody Buffer) specific for that subunit. The plate was incubated for 1 hour at room temperature and then washed 3 times with 200 μL 1× Wash Buffer. Next, 100 μL of a HRP conjugated goat anti-rabbit antibody (diluted 1:1,000 in 1× Antibody Buffer) was added to each well. The plate was incubated for 1 hour at room temperature and then washed 4 times with 200 μL 1× Wash Buffer. 100 μL of room temperature Developing Solution was added to each well. The reaction was allowed to develop for 2-10 minutes until a medium dark blue color developed (depending on the subunit activity in the lot of extract or lot of recombinant protein used) and then the reaction was stopped with 100 μL Stop Solution yielding a yellow color. Absorbance was recorded using a Becton-Dickinson DTX 880 Multimode Detector at 450 nm with a reference wavelength subtracted at 620 nm. FIGS. 2, 3 and 4 illustrate the effect of Example 10 on inhibiting RelA, RelB and c-Rel binding to NF-κB sites.
For orientation: An ELISA detects its analyte on a solid surface through an enzyme-linked reagent.

Structures can show the parent of a compound that is named as a salt.

Usually EC50 stands for the concentration that produces a half-maximal response. A word on the inhibition: it is the drop in the measured response relative to a control, in per cent. Low values mean a weak effect, high ones a strong effect. `O=C(NC1=CC(=O)C2OC2C1O)c1ccc(C(F)(F)F)cc1O` (racemic) [Example 1, 2-hydroxy-N-(2-hydroxy-5-oxo-7-oxabicyclo[4.1.0]hept-3-en-3-yl)-4-(trifluoromethyl)benzamide]: the EC50 in assay [1] was determined as 13.3 µM. Further, testing at 5 µM at RelB gave an inhibition of 6%.

`O=C(NC1=CC(=O)C2OC2C1O)c1ccc(Cl)cc1O` (racemic) [Example 2, (±)-4-chloro-2-hydroxy-N-(2-hydroxy-5-oxo-7-oxabicyclo[4.1.0]hept-3-en-3-yl)benzamide]: the 50% effective concentration (EC50) in assay [1] was 5.9 µM. On RelB, this compound showed an inhibition at 5 µM of 18%.

Take `Cc1ccc(C(=O)NC2=CC(=O)C3OC3C2O)c(O)c1` (racemic) [Example 3, (±)-2-hydroxy-N-(2-hydroxy-5-oxo-7-oxabicyclo[4.1.0]hept-3-en-3-yl)-4-methylbenzamide]: the EC50 in assay [1] amounted to 10 µM. 5 µM produced 10% inhibition on RelB.

`Cc1cccc(C(=O)NC2=CC(=O)C3OC3C2O)c1O` (racemic) [Example 4, (±)-2-hydroxy-N-(2-hydroxy-5-oxo-7-oxabicyclo[4.1.0]hept-3-en-3-yl)-3-methylbenzamide]: the EC50 in assay [1] was determined as 2.6 µM. Besides, on RelB, testing at 5 µM gave an inhibition of 9%.

Turning to `COc1ccc(C(=O)NC2=CC(=O)C3OC3C2O)c(O)c1` (racemic) [Example 5, (±)-2-hydroxy-N-(2-hydroxy-5-oxo-7-oxabicyclo[4.1.0]hept-3-en-3-yl)-4-methoxybenzamide], the EC50 in assay [1] stood at 5.7 µM. At RelB, this compound showed an inhibition at 5 µM of 17%.

On to `O=C(NC1=CC(=O)C2OC2C1O)c1cccc(Cl)c1O` (racemic) [Example 6, (±)-3-chloro-2-hydroxy-N-(2-hydroxy-5-oxo-7-oxabicyclo[4.1.0]hept-3-en-3-yl)benzamide], for which the EC50 in assay [1] turned out to be 7.2 µM. This compound also returned an inhibition at 5 µM on RelB of 13%.

Regarding `O=C(NC1=CC(=O)C2OC2C1O)c1cc2ccccc2cc1O` (racemic) [Example 7, (±)-3-hydroxy-N-(2-hydroxy-5-oxo-7-oxabicyclo[4.1.0]hept-3-en-3-yl)-2-naphthamide], the EC50 in assay [1] turned out to be 4.6 µM. Besides, at 5 µM the inhibition on RelB was 6%.

`O=C(NC1=CC(=O)C2OC2C1O)c1ccc2ccccc2c1O` (racemic) [Example 8, (±)-1-hydroxy-N-(2-hydroxy-5-oxo-7-oxabicyclo[4.1.0]hept-3-en-3-yl)-2-naphthamide] displayed an inhibition at 5 µM on RelB of 15%.

In turn, `O=C(NC1=CC(=O)C2OC2C1O)c1cc(Br)ccc1O` (racemic) [Example 9, (±)-5-bromo-2-hydroxy-N-(2-hydroxy-5-oxo-7-oxabicyclo[4.1.0]hept-3-en-3-yl)benzamide] displayed an inhibition at 5 µM on RelB of 32%.

As usually defined, the IC50 is the point on the concentration scale where inhibition reaches its midpoint. Higher therefore signals lower potency. At RelB, `CN(C)c1ccc(C(=O)NC2=CC(=O)C3OC3C2O)c(O)c1` (racemic) [Example 10, (±)-4-(dimethylamino)-2-hydroxy-N-(2-hydroxy-5-oxo-7-oxabicyclo[4.1.0]hept-3-en-3-yl)benzamide] showed an IC50 of 23 µM.

For `COc1ccc2cc(O)c(C(=O)NC3=CC(=O)C4OC4C3O)cc2c1` (racemic) [Example 11, (±)-3-hydroxy-N-(2-hydroxy-5-oxo-7-oxabicyclo[4.1.0]hept-3-en-3-yl)-7-methoxy-2-naphthamide], the IC50 on RelB came to 10 µM.

In the case of `O=C(NC1=CC(=O)C2OC2C1O)c1cc2cc(Br)ccc2cc1O` (racemic) [Example 15, (±)-7-bromo-3-hydroxy-N-(2-hydroxy-5-oxo-7-oxabicyclo[4.1.0]hept-3-en-3-yl)-2-naphthamide], the IC50 on RelB was 3.9 µM.

With `COc1c(C(=O)NC2=CC(=O)C3OC3C2O)ccc(F)c1F` (racemic) [Example 16, (±)-3,4-difluoro-N-(2-hydroxy-5-oxo-7-oxabicyclo[4.1.0]hept-3-en-3-yl)-2-methoxybenzamide], the half-inhibitory concentration (IC50) at RelB is 2.1 µM. Against the preceding compound, the IC50 is about 1.9-fold lower.

Turning to `Cc1ccc(C(C)C)c(C(=O)NC2=CC(=O)C3OC3C2O)c1O` (racemic) [Example 17, (±)-2-hydroxy-N-(2-hydroxy-5-oxo-7-oxabicyclo[4.1.0]hept-3-en-3-yl)-6-isopropyl-3-methylbenzamide], at RelB, the concentration for half-maximal inhibition (IC50) worked out at 82 µM. This IC50 lies about 39-fold higher than the previous one.

Regarding `CN(C)c1ccc(C(=O)NC2=CC(=O)C3OC3C2O)c(O)c1` (racemic) [Example 19, (±)-4-(dimethylamino)-2-hydroxy-N-(2-hydroxy-5-oxo-7-oxabicyclo[4.1.0]hept-3-en-3-yl)benzamide trifluoroacetate], on RelB, the concentration for half-maximal inhibition (IC50) came to 3.3 µM.

In the case of `COc1cc(N(C)C)ccc1C(=O)NC1=CC(=O)C2OC2C1O` (racemic) [Example 20, (±)-4-(dimethylamino)-N-(2-hydroxy-5-oxo-7-oxabicyclo[4.1.0]hept-3-en-3-yl)-2-methoxybenzamide], at RelB, the concentration for half-maximal inhibition (IC50) stood at 1 µM.

These data come from patent publication US20120046357A1, “Benzamide and Napthamide Derivatives Inhibiting Nuclear Factor-Kappa (B) - (NK-kB)” (Profectus Biosciences, Inc., priority 2009, published 2012).
